Columns and labels:
[1] = pKa of amino lipid; type: physicochemical
[2] = Assessment of antisense encapsulation (encapsulation efficiency, drug:lipid ratio); type: physicochemical
Procedure: drug to lipid ratio: The amount of drug (therapeutic agent) in a defined volume of preparation divided by the amount of lipid in the same volume. This may be on a mole per mole basis or on a weight per weight basis, or on a weight per mole basis. For final, administration-ready formulations, the drug:lipid ratio is calculated after dialysis, chromatography and/or enzyme (e.g., nuclease) digestion has been employed to remove as much of the external therapeutic agent (e.g., nucleic acid) as possible.
encapsulation efficiency: the drug to lipid ratio of the starting mixture divided by the drug to lipid ratio of the final, administration competent formulation. This is a measure of relative efficiency. For a measure of absolute efficiency, the total amount of therapeutic agent (nucleic acid) added to the starting mixture that ends up in the administration competent formulation, can also be calculated. The amount of lipid lost during the formulation process may also be calculated. […]
Antisense encapsulation was typically assessed by dual label ([^3H]-antisense and [^14C]-lipid) liquid scintillation counting after gel filtration chromatography to separate the free and encapsulated antisense. Antisense encapsulation was evaluated by summing the total [^3H]-antisense radioactivity associated with the lipid peak and dividing by the total [^3H]-antisense radioactivity. […]

[3] = system: ICAM-1 gene; assay: Ear inflammation model (DNFB contact sensitivity); type: in vivo, ICR mice; conditions: lipid-encapsulated antisense, i.v. 20-30 mg/kg 15 min after DNFB, 24 hours
Procedure: Mice were sensitized by applying 25 μL of 0.5% 2,4-dinitro-1-fluorobenzene (DNFB) in acetone: olive oil (4:1) to the shaved abdominal wall for two consecutive days. Four days after the second application, mice were challenged on the dorsal surface of the left ear with 10 μL of 0.2% DNFB in acetone:olive oil (4:1). Mice received no treatment on the contralateral (right) ear. In some cases, control mice received 10 μL of vehicle on the dorsal surface of the left ear.
Ear thickness was measured immediately prior to ear challenge, and at various time intervals after DNFB challenge, using an engineer's micrometer (Mitutoyo, Tokyo, Japan). Increases in ear thickness measurements were determined by subtracting the pre-challenge from post-challenge measurements.
Inflamed mice were treated at the time of ear challenge with a 30 mg/kg i.v. dose of either HBS (no oligo), EPC:CHOL liposomes with entrapped PS-3082 (identified as AS 1000), POPC:CHOL:DODAP:PEG-CerC14 with entrapped PS-3082 (identified as AS 4100), or DSPC:CHOL:DODAP:PEG-CerC14 with entrapped PS-3082 (identified as AS 4200). Ear swelling was measured at 24 hours after initiating inflammation using an engineer's micrometer.
Antisense Sample Preparation: Antisense was encapsulated using the standard methods of Examples 5-9, using the phosphodiester modification. […]

[4] = system: MDA-MB-453 human breast carcinoma; assay: Tumor window model, human breast tumor; type: in vivo, mouse; conditions: i.v. 10 mg/kg/administration, 3 administrations/week
Text: The human breast carcinoma line MDA-MB-453 was implanted in a mouse tumor window model according to the method of Wu, N. Z., Da, D., Rudoll, T. L., Needham, D., Whorton, R. & Dewhirst, M. W. 1993. Increased microvascular permeability contributes to preferential accumulation of Stealth liposomes in tumor tissue. Cancer Research 53: 3765-3770; and Dewhirst, M. W., Tso, C. Y., Oliver, R., Gustafson, C. S., Secomb, T. W. & Gross, J. F. 1989. Morpholigic and hemodynamic comparison of tumor and healing normal tissue microvasculature. Int. J. Radiat. Oncol. Biol. Phys. 17: 91-99. See also Dewhirst, M W., and Needham, D. 1995. Extravasation of Stealth Liposomes into Tumors: Direct Measurement of Accumulation and Vascular Permeability using a Skin Flap Window Chamber. In Stealth Liposomes (Eds. Lasic, D. and Martin, F.) CRC Press.
In vivo efficacy evaluation: When the tumor in the window has reached a diameter of 2-3 mm, treatment with free or TCS-encapsulated US3 oligonucleotide is initiated. Treatment consists of a 200 ul intravenous administration (tail vein) of either free US3 or TCS-encapsulated US3 on a 3 administrations/week schedule and an antisense dose of 10 mg/kg/administration. Tumor size is monitored 3 times per week by microscopy.

Q: With `CCCCCCCC/C=C\CCCCCCCC(=O)OCC(CN(C)C)OC(=O)CCCCCCC/C=C\CCCCCCCC` (stereo not drawn) [DODAP, 1,2-dioleoyloxy-3-dimethylaminopropane] as the compound, how does the pKa [1] read?
A: 6.53

Q: Which “final (administration ready) drug:lipid ratios” value ([2]; citrate varied, DSPC:CHOL:DODAP:PEG-CerC14 25:45:20:10) does the source give for “PO-2302: human ICAM-1 phosphodiester antisense GCCCAAGCTGGCATCCGTCA (SEQ ID No 2) (DNA, all phosphodiester, methylation of C not given here)” here?
A: greater than 10 % by weight

Q: Which “reduction of the degree of inflammation” value [3] does the source give for “PO-3082: murine ICAM-1 phosphodiester antisense TGCATCCCCCAGGCCACCAT (SEQ ID No 1) (DNA, all phosphodiester, methylation of C not given here)” here?
A: ~85%

Q: For “PS-3082: murine ICAM-1 phosphorothioate antisense TGCATCCCCCAGGCCACCAT (SEQ ID No 1) (DNA, all phosphorothioate, methylation of C not given here)”, which “reduction of the degree of inflammation” value [3] is on record?
A: around 70%

Q: With “US3: anti-human erb-B-2 antisense GGT GCT CAC TGC GGC (SEQ ID No 3) (antisense GGTGCTCACTGCGGC; all phosphorothioate, sugars by position and methylation of C not given here)” as the compound, how does the “effect on tumor growth” value [4] read?
A: ineffective at inhibiting tumor growth

Q: Which encapsulation efficiency ([2]; 20 mM citrate, FIG. 20) does the source give for “VEGF-R1: human VEGF-R 1 ribozyme GAGUUGCUGAUGAGGCCGAAAGGCCGAAAGUCUG (SEQ ID No 16) (GAGUUGCUGAUGAGGCCGAAAGGCCGAAAGUCUG; chemistry not fully specified)” here?
A: over 50%
